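In this assay, cells in 96-well plates receive the compound at five concentrations for 48 hours. Endpoints are linearly interpolated between the surrounding concentrations. Here, GI50 denotes the concentration required for 50% inhibition of growth. TGI: concentration producing complete growth inhibition.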

This note sets out measurements from PubChem BioAssay (NCI).

Test systems include CCRF-CEM leukemia; UACC-62 melanoma; NCI-H522 lung; SF-268 CNS; SN12C renal; LOX IMVI melanoma; HOP-92 NSCLC; 786-0 renal; PC-3 prostate; SR leukemia.
Common to all, as to test: NCI-60 cell line screen, 48 h

Take `O=C(COc1ccc(/C=C2\CSc3ccccc3C2=O)cc1)Nc1nccs1`: the GI50 was 2.01 µM in the assay on CCRF-CEM leukemia; 5.32 µM in the assay with UACC-62 melanoma; 1.92 µM with NCI-H522 lung; 3.61 µM in the assay with SF-268 CNS; 5.8 µM with SN12C renal; 1.77 µM with LOX IMVI melanoma. Further, the results for the GI50 in the assay with HOP-92 NSCLC, in the assay on 786-0 renal and in the assay with PC-3 prostate were 0.026 µM, 14 µM and 3.97 µM, respectively. Moreover, the TGI with CCRF-CEM leukemia came to 9.09 µM; in the assay with UACC-62 melanoma it was 19 µM; in the assay with NCI-H522 lung, 4.17 µM; with SF-268 CNS it was 13.6 µM; in the assay on SN12C renal, 29.8 µM; in the assay on LOX IMVI melanoma, 3.41 µM. The TGI in the assay with HOP-92 NSCLC amounted to 9.46 µM; with 786-0 renal it was 27 µM; in the assay with PC-3 prostate, 28.9 µM.
As to `COc1ccc(C(=O)COc2cccc(/C=C3\Oc4ccc5ccccc5c4C3=O)c2)cc1`, the GI50 with CCRF-CEM leukemia was 0.327 µM; with UACC-62 melanoma, 10.7 µM; with NCI-H522 lung it was 1.46 µM; with SF-268 CNS it was 3.72 µM; in the assay with SN12C renal it was 1.76 µM; in the assay with LOX IMVI melanoma, 1.56 µM. The GI50 in the assay with HOP-92 NSCLC is 0.0932 µM; with 786-0 renal it was 2.22 µM; in the assay on PC-3 prostate, 1.54 µM. Besides, the TGI stood at 1.44 µM with CCRF-CEM leukemia; 22.5 µM in the assay on UACC-62 melanoma; 3.29 µM with NCI-H522 lung; 14 µM in the assay with SF-268 CNS; 3.85 µM in the assay on SN12C renal; 3.08 µM with LOX IMVI melanoma. Moreover, the TGI with HOP-92 NSCLC was determined as 25.6 µM; with 786-0 renal it was 6.73 µM; with PC-3 prostate it was 3.23 µM.
On to `CCc1ccccc1NC(=O)c1sc2nc3c(cc2c1N)C(=O)CCC3`, for which the GI50 in the assay with CCRF-CEM leukemia was 0.352 µM; in the assay on SR leukemia, 0.406 µM; in the assay on UACC-62 melanoma, 0.439 µM; with NCI-H522 lung, 0.502 µM; in the assay with SF-268 CNS, 11.9 µM; in the assay with SN12C renal it was 0.729 µM. Further, the GI50 is 0.669 µM with LOX IMVI melanoma, 0.722 µM in the assay with 786-0 renal and 0.461 µM in the assay with PC-3 prostate. Also, the TGI with CCRF-CEM leukemia, with SR leukemia, with UACC-62 melanoma, with NCI-H522 lung, in the assay with SF-268 CNS and in the assay on SN12C renal was more than 100 µM each time. The TGI in the assay on LOX IMVI melanoma is more than 100 µM; in the assay on 786-0 renal, more than 74.2 µM; in the assay with PC-3 prostate it was more than 100 µM.
For the compound `O=c1[nH]cnc2cccc(Cl)c12`, the TGI in the assay with CCRF-CEM leukemia, in the assay with SR leukemia, in the assay on UACC-62 melanoma, with NCI-H522 lung, in the assay with SF-268 CNS and in the assay on SN12C renal was more than 100 µM each time. For the same compound, the TGI with 786-0 renal and in the assay on PC-3 prostate was more than 100 µM each time.
Regarding `COc1ccc(-c2c[nH]c(=S)n2-c2ccc(OC)cc2)cc1`, the GI50 in the assay on SR leukemia, in the assay on UACC-62 melanoma, with NCI-H522 lung, in the assay on SF-268 CNS, in the assay on SN12C renal and in the assay on LOX IMVI melanoma was more than 50 µM throughout. In addition, the GI50 in the assay on 786-0 renal and in the assay on PC-3 prostate was more than 50 µM in each case. The TGI in the assay on SR leukemia, in the assay on UACC-62 melanoma, in the assay on NCI-H522 lung, in the assay with SF-268 CNS, in the assay on SN12C renal and with LOX IMVI melanoma was more than 50 µM in each case. For the same compound, the TGI in the assay on 786-0 renal and in the assay with PC-3 prostate was more than 50 µM throughout.
Take `O=C(Nc1ccc(-n2cc(-c3ccncc3)c(-c3ccc(Cl)c(O)c3)n2)cc1)Nc1ccc(Cl)c(C(F)(F)F)c1`: the GI50 in the assay on CCRF-CEM leukemia is 1.53 µM; in the assay with UACC-62 melanoma, 1.7 µM; with SF-268 CNS, 1.65 µM; in the assay on SN12C renal it was 1.59 µM; in the assay on LOX IMVI melanoma it was 1.44 µM; in the assay on HOP-92 NSCLC, 1.57 µM. The GI50 is 1.22 µM in the assay with 786-0 renal and 1.86 µM in the assay with PC-3 prostate. For the same compound, the TGI with CCRF-CEM leukemia was 8.79 µM; with UACC-62 melanoma, 3.44 µM; with SF-268 CNS it was 3.87 µM; with SN12C renal, 3.86 µM; with LOX IMVI melanoma it was 2.75 µM; with HOP-92 NSCLC, 4.21 µM. Also, the TGI in the assay on 786-0 renal came to 3.11 µM; in the assay with PC-3 prostate, 9.63 µM.
Take `CC(C)OC(=O)NNc1cc(Cl)ccc1Cl`: the TGI in the assay on CCRF-CEM leukemia, with UACC-62 melanoma, in the assay on NCI-H522 lung, in the assay with SF-268 CNS, in the assay on SN12C renal and in the assay with LOX IMVI melanoma was more than 100 µM each time. The TGI in the assay with HOP-92 NSCLC, in the assay on 786-0 renal and with PC-3 prostate was more than 100 µM throughout.
Take `[Au+].[Au+].[Au+].[c-]1nccn1Cc1ccccc1.[c-]1nccn1Cc1ccccc1.[c-]1nccn1Cc1ccccc1`: the GI50 in the assay on CCRF-CEM leukemia is 3.71 µM; in the assay with UACC-62 melanoma it was 5.23 µM; with NCI-H522 lung, 1.58 µM; in the assay on SF-268 CNS, 3.35 µM; with SN12C renal, 8.42 µM; in the assay on LOX IMVI melanoma it was 1.56 µM. Also, the GI50 in the assay on HOP-92 NSCLC is 2.34 µM; with 786-0 renal it was 1.73 µM; in the assay on PC-3 prostate, 17.4 µM. Besides, the TGI is more than 25.5 µM with CCRF-CEM leukemia; 21.4 µM in the assay on UACC-62 melanoma; 2.95 µM in the assay with NCI-H522 lung; 15.3 µM with SF-268 CNS; 55.3 µM in the assay with SN12C renal; 3.08 µM in the assay with LOX IMVI melanoma. In addition, the figures for the TGI with HOP-92 NSCLC, in the assay on 786-0 renal and with PC-3 prostate were 4.25 µM, 3.11 µM and 34.4 µM, respectively.
On to `CN(CCCNC(=O)Cc1ccc2ccc3cccc4ccc1c2c34)CCCNc1cc(-c2ccc3ccccc3c2)nc2ccccc12`, for which the GI50 is 1.88 µM with UACC-62 melanoma; 1.43 µM with SF-268 CNS; 1.68 µM with SN12C renal; 1.41 µM with HOP-92 NSCLC; 1.53 µM in the assay with 786-0 renal; 1.49 µM in the assay on PC-3 prostate. Also, the TGI in the assay with UACC-62 melanoma turned out to be 3.46 µM; in the assay on SF-268 CNS it was 2.91 µM; in the assay on SN12C renal, 3.29 µM; in the assay on HOP-92 NSCLC it was 3.02 µM; in the assay on 786-0 renal, 2.97 µM; in the assay with PC-3 prostate, 3.22 µM.
On to `COc1cc2c(cc1O)C1Cc3ccc(OC)c(O)c3C(C2)N1C` (configuration not stated), for which the TGI in the assay on CCRF-CEM leukemia, in the assay with UACC-62 melanoma, with NCI-H522 lung, in the assay with SF-268 CNS, in the assay on SN12C renal and with LOX IMVI melanoma was more than 100 µM each time. The TGI in the assay with HOP-92 NSCLC, in the assay on 786-0 renal and in the assay with PC-3 prostate was more than 100 µM in each case.
